Assay results reported in patent publication US20250302797A1, “COMBINATION THERAPIES FOR TREATING INFLAMMATION” (Flagship Pioneering Innovations VI, LLC, priority 2022, published 2025).

How the values were obtained:
[1] = system: oxazolone-induced ear swelling in mice; assay: Oxazolone-induced dermatitis mouse model: ear thickness; assay type: in vivo, BALB/c mice; conditions: topical 20 μL, 5 mg/mL, 30 minutes before and 15 minutes after oxazolone challenge; measured at 24 hours
Experimental: (§1) Male BALB/c mice weighing 22±2 g are used and randomly divided into groups of 5 each. Sham treatment group receive no oxazolone sensitization and challenge, but PBS, plus treated with vehicle (Acetone:ethanol 1:1). All other groups' animals were sensitized by applying oxazolone (100 μL, 1.5% in acetone) onto their preshaved abdominal surface on Day 0, and challenged by oxazolone (1%, 20 μL/ear) seven (7) days later. 20 μL of either Vehicle, Dexamethasone (5 mg/mL; anti-inflammatory positive control), or a combination of Luteolin (1.6-9.6 mg/mL)+Gamma-mangostin (1.2-7.2 mg/mL) were applied topically to the anterior and posterior surfaces of the right ear 30 minutes before and 15 minutes after oxazolone challenge. Left ear was unstimulated and treated as a control.
(§2) The right and left ear thickness of each mouse were measured at 24 hours after oxazolone challenge as an index of inflammation. The right ear was harvested and snap frozen for cytokine gene expression analysis.

[2] = system: cytokine gene expression in ears of mice stimulated with oxazolone; assay: Oxazolone-induced dermatitis mouse model: cytokine gene expression in ear; assay type: in vivo, BALB/c mice; conditions: right ear; topical; Dexamethasone 5 mg/mL or Luteolin (1.6-9.6 mg/mL)+Gamma-mangostin (1.2-7.2 mg/mL)
Experimental: as §1, §2

LPS-injected mice = assay: LPS-induced systemic inflammation mouse model: blood cytokine levels; assay type: in vivo, C57Bl/6 mice; conditions: intraperitoneal 1 hour prior to LPS (1 mg/kg); Dexamethasone 5 mg/kg or Luteolin+Gamma-mangostin 4+4.5 mg/kg; serum or plasma
Experimental: C57Bl/6 male mice, 6-8 weeks old, weighing 22±2 g were randomly divided into groups of 5-6 each. Sham animals were injected intra-peritoneally with PBS only. All other groups were intraperitoneally injected with either Vehicle control, Dexamethasone (5 mg/kg), or a combination of Luteolin+Gamma-mangostin (4+4.5 mg/kg) at 1 hour prior to injection with LPS (1 mg/kg), an agent known to trigger systemic inflammation. After LPS injection, blood was collected at different time points: 30 min, 2 h, 4 h and 24 h and the processed serum or plasma were used for further cytokine analysis through LUMINEX or Ella Automated Immunoassay System (Protein Simple).

[3] = system: Differentiated THP-1 macrophages stimulated with IFN-gamma and LPS; assay: THP1 cytokine secretion assay; assay type: cell-based, Human; conditions: for greatest IL6 inhibition to: IL6 secretion; for greatest TNFa inhibition to: TNFa secretion
Experimental: Human THP-1 cells were plated and differentiated into macrophages through treatment with phorbol 12-myristate 13-acetate and beta-mercaptoethanol for 72 hours. Differentiated THP-1 macrophages were then stimulated with IFN-gamma (20 ng/mL) and LPS (50 ng/mL) to induce an inflammatory response and co-treated with gamma-mangostin and/or luteolin at 0, 0.2, 0.5, 2, 5, 10 uM. Various secreted cytokines were measured from the media using the Ella Automated Immunoassay System (ProteinSimple).

[4] = Gamma-mangostin alone at 10 uM (0-10 uM tested)
[5] = Luteolin alone at 0.5 uM (0-10 uM tested)

Compound: C[C@@H]1C[C@H]2[C@@H]3CCC4=CC(=O)C=C[C@]4(C)[C@@]3(F)[C@@H](O)C[C@]2(C)[C@@]1(O)C(=O)CO [Dexamethasone]
- reduction in ear thickness compared to the Vehicle-treated ears [1]: 29%
- Ifng gene expression (% of Vehicle control) [2]: 445%
- Il1b gene expression (% of Vehicle control) [2]: 5%
- Il4 gene expression (% of Vehicle control) [2]: 24%
- Il6 gene expression (% of Vehicle control) [2]: 33%
- Il11 gene expression (% of Vehicle control) [2]: 55%
- Il13 gene expression (% of Vehicle control) [2]: 20%
- Tnfa gene expression (% of Vehicle control) [2]: 14%
- CXCL1 level, % of the Vehicle (LPS-injected mice): 57%
- MIP1-beta level, % of the Vehicle (LPS-injected mice): 29%
- TNFa level, % of the Vehicle (LPS-injected mice): 12%

Compound: CC(C)=CCc1c(O)cc2oc3cc(O)c(O)c(CC=C(C)C)c3c(=O)c2c1O [Gamma-mangostin, Gamma-Mangostin]
- greatest IL6 inhibition to [3, 4]: 53%
- greatest TNFa inhibition to [3, 4]: 45%

Compound: O=c1cc(-c2ccc(O)c(O)c2)oc2cc(O)cc(O)c12 [Luteolin]
- greatest IL6 inhibition to [3, 5]: 53.7%
- greatest TNFa inhibition to [3, 5]: 45.6%
